ChEMBL document CHEMBL1149717, “Three New Eudesmane Sesquiterpenes from Pluchea arguta” (J Nat Prod, 1992)
Activity calls are given as the source filed them.

Experiments:
Assay type in all cases: functional, organism-based
Lactococcus lactis = experiment: Antibacterial activity against Streptococcus lactis
Klebsiella pneumoniae = experiment: Antibacterial activity against Klebsiella ozaenae; settings: subsp. ozaenae
Proteus vulgaris = experiment: Antibacterial activity against Proteus vulgaris

Measured: Activity

CC(=O)O[C@]1(C)[C@@H]2C=C(C(C)(C)O)C(=O)C[C@@]2(C)CC[C@H]1OC(=O)C(C)(O)C(C)Cl (stereo partly drawn)
active: all assays above
